# Source: US9580428B2, “Compositions and methods for inhibiting viral polymerase” (priority 2012, dated 2017)
# Test system: A/NJ/15/2007 (H1N1 - H274Y)
# Type: cell-based, influenza A virus
smiles,measurement,value
"Cl.Cl.Nc1ncnc2c([C@@H]3N[C@H](CO)[C@@H](O)[C@H]3O)c[nH]c12 [compound 12i, (2S,3S,4R,5R)-2-(4-amino-5H-pyrrolo[3,2-d]pyrimidin-7-yl)-5-(hydroxymethyl)pyrrolidine-3,4-diol dihydrochloride]",EC50,1.39 µg/mL
